Experimental data published in patent publication US9580465B2, “Tissue protective peptides and peptide analogs for preventing and treating diseases and disorders associated with tissue damage” (ARAIM PHARMACEUTICALS, INC., priority 2008, dated 2017).
“Also recorded” adds a separate entry of the source. Square brackets hold non-standard residues; d marks the D form. pGlu = O=C1CC[C@@H](C(=O)O)N1

Experiments:
[1] = tested on: middle cerebral artery occlusion; assay: Middle cerebral artery occlusion model; format: in vivo, Sprague Dawley rats; conditions: 2 μg/kg bw i.v. upon reperfusion, then three injections at 2-hour intervals
Description: Sprague Dawley rats (8 per group) are subjected to the following MCAO protocol Surgery was performed in accordance with the teachings of Brines et al, 2000, PNAS USA 97:10526-10531 (hereby incorporated by reference in its entirety. Briefly, the rats are anesthetized with chloral hydrate (400 mg/kg-bw, i.p.), the carotid arteries were visualized, and the right carotid was occluded by two sutures and severed. A burr hole adjacent and rostral to the right orbit allowed visualization of the middle cerebral artery (“MCA”), which was cauterized distal to the rhinal artery. To produce a penumbra (border zone) surrounding this fixed MCA lesion, the contralateral carotid artery was occluded for 1 hour by using […] provided by a fine forceps and then re-opened.
The rats were administered saline, Peptide ID as a single i.v. dose (2 μg/kg bw), or Peptide IX, […], SEQ ID NO: 301), a scrambled version of Peptide IC, SEQ ID NO: 281, as a single Lv. dose (2 μg/kg bw) upon reperfusion, followed by three additional injections at 2-hour intervals. For assessment of injury, rats are subjected to behavioral testing or the volume of the lesion is determined by tetrazolium staining of brain sections performed 24 hours post surgery in accordance with the previously noted protocol.
The volume of the lesion was then determined by tetrazolium staining of brain sections performed 24 hours post surgery.
Rats were also tested in a foot fault behavioral protocol. Rats were tested on an elevated stainless steel grid floor 30 cm×30 cm with grid size of 30 mm according to the protocol of Markgraf et al., 1992, Brain Research 575:238-246 (hereby incorporated by reference in its entirety). When placed on the grid, a rat would attempt to move around and occasionally place a foot, rather than on the grid, through a grid opening (“foot fault”). The number of foot faults was measured for a 1 minute period.
The number of foot faults is indicative of the cognitive impairment of the rats due to the MCAO, the fewer the number of foot faults the less cognitive impairment.

9 L gliosarcoma cells = assay: 9 L gliosarcoma implantation model, delayed treatment; format: in vivo, CD Fisher rats
Description: In accordance with the accordance with the protocol of Lampson et al. Cancer Res. 53:176-82:1993 described above, CD Fisher rats were implanted with 9 L gliosarcoma cells transfected with the LacZ gene by use of a Hamilton syringe. 100,000 cells in 10 microliters were injected into the right caudate.
ID with a short plasma half life, another receiving Peptide IW (pegylated form of Peptide IC) and the third group received saline. Peptides were given at a dose of 25 nmole/kg body weight. Three weeks later, the animals were sacrificed and serial 1 mm thick coronal sections cut through the brain and incubated with 5-bromo-4-chloro-3-indolyl-[beta]-D-galactopyranoside (Xgal). Tumor cells (containing the LacZ gene) metabolized Xgal into a dark blue stain, localizing the extent of tumor. High resolution digital images were obtained and the areas stained blue determined using planimetric methodology. Data is expressed as total area of tumor infiltration.

[2] = In vivo assessment of erythropoietic activity, 28 days i.v. in rats; design: species or system Sprague Dawley rats; conditions: 0, 60, 180, 600 μg/kg per dose i.v. twice a day for 28 days; blood on day 29; FIG. 2
Description: To evaluate the erythropoietic activity of tissue protective peptides and peptide analogs, Peptide ID was administered intravenously twice a day to Sprague Dawley rats for 28 days. Nine male and nine female rats were assigned to groups 1-4 receiving 0, 60, 180, and 600 μg/kg per dose (0, 48, 143, and 477 nmol/kg, respectively) of Peptide ID in PBS by bolus intravenous administration from days 1-28, Blood samples to assay for hematological variables were collected on day 29. Hemoglobin concentration was determined by use of an automated analyzer (Keska Corporation).

UEQLERALNSS ([pGlu]EQLERALNSS-OH; also: acetate/ammonium mixed salt) [Peptide ID, first glutamine replaced with pyroglutamate]
infarct volume (volume of lesion) ([1]; 24 hours post surgery, tetrazolium staining): 225±20 mm^3
number of foot faults in 1 minute period ([1]; after MCAO, FIG. 5): 11.2±1.1 foot faults
tumor size (total area of tumor infiltration) (9 L gliosarcoma cells; 25 nmole/kg i.p. daily starting two weeks after implantation, three weeks, FIG. 13, 14): smaller than the saline group, it was not significantly different; also recorded: reduced the size of tumor
tumor size (9 L gliosarcoma cells; daily treatment begun immediately after implantation, FIG. 14): substantially smaller tumors; also recorded: reduction in size of the tumor
hemoglobin concentration [2]: no difference in any of the groups
